A value given as a limit tells only on which side of the number the result lay.

One test addresses T1, Tek (Homo sapiens, UniProt Q02763).
T1 construct: N-terminally GST-fused (pAcG1, Pharmingen) KDR, Flt-1, Flk-1, Tek and PDGFR-β kinase domains are obtained from ProQinase, Freiburg, Germany; host or cells: Sf9 or High Five (baculovirus)
Nature of the test: Tek kinase inhibition, GST-fused kinase domain. The format is biochemical. The conditions noted are these: Table 5; read-out: Tek, IC50 class. From the text:
The inhibition of IGF-1R and Ins-R can be determined as follows: The baculovirus donor vector pfbgx3IGFIRcd is used to generate a recombinant baculovirus that expresses the amino acid region 950-1337 of the mature peptide cytoplasmic domain of the human IGF-IR. To generate the cDNA fragment encoding the amino acid region 919-1343 of the intra-cytoplasmic kinase domain of the human insulin receptor, pC5hInsR is used. The fragments of the human IGF-IR and Ins-R are cloned, expressed and small-scale purified as a factor Xa-cleavable glutathione-S-transferase (GST)-fusion protein using the Bac-to-Bac™ system (GIBCO BRL) of recombinant baculovirus generation. Virus containing media is collected from the transfected cell culture and used for infection to increase its titer. Virus containing media obtained after two rounds of infection is used for large-scale protein expression. Cell extracts are prepared and loaded onto a glutathione-Sepharose (Pharmacia) column. After washing, the GST-tagged proteins are then eluted with a glutathione-containing buffer. Purified protein is stored at −70° C. in elution buffer. Tyrosine protein kinase assays with purified GST-IGF-1R and GST-ins-R are carried in a final volume of 30 μl containing 20 mM Tris-HCl, pH 7.6, 10 mM MgCl2, 0.01 mM Na3VO4, 1% DMSO, 1 mM DTT, 3 μg/ml poly(Glu,Tyr) 4:1 and 10 μM ATP (γ-[^33P]-ATP 0.1 μCi). The assay is performed in 96-well plates at ambient temperature for 20 min and terminated by addition of 25 μl 0.05 M EDTA pH 7.0. An aliquot of 40 μl is spotted with a multichannel dispenser on Whatman P81 membranes mounted in a Millipore Microtiter filter manifold connected to a low vacuum source. After elimination of liquid, the membrane is transferred to a sequence of 4 washing baths containing 0.5% H3PO4 and one with EtOH (shaking incubation for 10 min each), dried, mounted onto a Hewlett Packard TopCount manifold added 10 μl Microscint® and counted. Compounds of formula (I) show up to 90% inhibition of Ins-R at 10,000 nM, preferably between 60-90% inhibition. The inhibition of Tek can be determined as follows: The procedure of the expression, purification and assay these kinases has been described. Fabbro et al., Pharmacol. Ther. 82(2-3) 293-301 (1999). In brief, the glutathione S-transferase (GST) gene from the pAcG1 vector (Pharmingen) is excised with EcoRV and EcoRI and inserted into the cloning site of the Fast-Bac baculoviral vector (GIBCO) creating a 5530 bp vector with N-terminal cloning sites derived from the pAcG1 fusion vector (FBG0). The C-terminal cloning site may be any cloning site (from the Fast-Bac vector) downstream of the N-terminal cloning site used. N-terminally GST-fused (pAcG1, Pharmingen) KDR, Flt-1, Flk-1, Tek and PDGFR-β kinase domains are obtained from ProQinase, Freiburg, Germany. Tek is recloned into the FBG1 vector by EcoRI excision and ligation into EcoRI digested FBG1 (FBG1-Tek). The coding sequences for the whole cytoplasmic domain of c-Kit (aa 544-976) and c-Fms (aa 538-972) are amplified by PCR from human uterus and from human bone marrow cDNA libraries (Clontech), respectively. The amplified DNA fragments are fused to GST by cloning them into FBG1 as BamHI-EcoRI insertions, to yield FBG1-c-Kit and FBG1-c-Fms. Tek is recloned into the FBG0 transfer vector by EcoRI excision and ligation into EcoRI digested FBG0 (FBG-Tie2/Tek). FGFR-1 and c-met kinase domains are obtained by PCR from human A431 cells. N-terminal primers contain an overhanging EcoRI site, while C-terminal primers contain a XhoI site to aid cloning into the transfer vectors. After digestion of both the PCR fragments and FBG0 the cleavage products are gel-purified and ligated together to form the kinase constructs (FBG-Met, FBG-FGFR-1).
Viruses for each of the kinases are made according to the protocol supplied by GIBCO. […]

Another test concerns the target Cdk1/cycB (UniProt P06493). Nature of the test: Cdk1/cycB kinase assay, histone H1 substrate. The format is biochemical, starfish. The conditions noted are these: Table 5; read-out: CDK1/B, IC50 class. Summed up:
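Active Cdk1/cycB was purified from starfish oocytes arrested in M phase with 1-methyladenine, using p9CKShs-sepharose. Reactions ran 20 min at ambient temperature and were stopped with EDTA. Phosphorylated product was captured on Immobilon P membranes, washed in H3PO4 and EtOH, and counted by scintillation.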

Another test has as its target HER-1 (Homo sapiens, UniProt P00533). The experiment in a line: HER-1 kinase inhibition. The format is biochemical. The conditions noted are these: Table 5; read-out: HER-1, IC50 class.

T1 sequence (Q02763 824-1096 limits assumed, species assumed): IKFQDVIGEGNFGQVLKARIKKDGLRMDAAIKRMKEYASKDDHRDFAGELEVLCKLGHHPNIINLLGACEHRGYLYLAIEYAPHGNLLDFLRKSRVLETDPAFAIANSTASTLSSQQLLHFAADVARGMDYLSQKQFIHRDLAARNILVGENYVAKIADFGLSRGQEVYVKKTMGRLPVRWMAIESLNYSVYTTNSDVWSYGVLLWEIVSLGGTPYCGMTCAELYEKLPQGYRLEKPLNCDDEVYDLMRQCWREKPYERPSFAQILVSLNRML
HER-1, sequence (P00533 25-1210, species assumed): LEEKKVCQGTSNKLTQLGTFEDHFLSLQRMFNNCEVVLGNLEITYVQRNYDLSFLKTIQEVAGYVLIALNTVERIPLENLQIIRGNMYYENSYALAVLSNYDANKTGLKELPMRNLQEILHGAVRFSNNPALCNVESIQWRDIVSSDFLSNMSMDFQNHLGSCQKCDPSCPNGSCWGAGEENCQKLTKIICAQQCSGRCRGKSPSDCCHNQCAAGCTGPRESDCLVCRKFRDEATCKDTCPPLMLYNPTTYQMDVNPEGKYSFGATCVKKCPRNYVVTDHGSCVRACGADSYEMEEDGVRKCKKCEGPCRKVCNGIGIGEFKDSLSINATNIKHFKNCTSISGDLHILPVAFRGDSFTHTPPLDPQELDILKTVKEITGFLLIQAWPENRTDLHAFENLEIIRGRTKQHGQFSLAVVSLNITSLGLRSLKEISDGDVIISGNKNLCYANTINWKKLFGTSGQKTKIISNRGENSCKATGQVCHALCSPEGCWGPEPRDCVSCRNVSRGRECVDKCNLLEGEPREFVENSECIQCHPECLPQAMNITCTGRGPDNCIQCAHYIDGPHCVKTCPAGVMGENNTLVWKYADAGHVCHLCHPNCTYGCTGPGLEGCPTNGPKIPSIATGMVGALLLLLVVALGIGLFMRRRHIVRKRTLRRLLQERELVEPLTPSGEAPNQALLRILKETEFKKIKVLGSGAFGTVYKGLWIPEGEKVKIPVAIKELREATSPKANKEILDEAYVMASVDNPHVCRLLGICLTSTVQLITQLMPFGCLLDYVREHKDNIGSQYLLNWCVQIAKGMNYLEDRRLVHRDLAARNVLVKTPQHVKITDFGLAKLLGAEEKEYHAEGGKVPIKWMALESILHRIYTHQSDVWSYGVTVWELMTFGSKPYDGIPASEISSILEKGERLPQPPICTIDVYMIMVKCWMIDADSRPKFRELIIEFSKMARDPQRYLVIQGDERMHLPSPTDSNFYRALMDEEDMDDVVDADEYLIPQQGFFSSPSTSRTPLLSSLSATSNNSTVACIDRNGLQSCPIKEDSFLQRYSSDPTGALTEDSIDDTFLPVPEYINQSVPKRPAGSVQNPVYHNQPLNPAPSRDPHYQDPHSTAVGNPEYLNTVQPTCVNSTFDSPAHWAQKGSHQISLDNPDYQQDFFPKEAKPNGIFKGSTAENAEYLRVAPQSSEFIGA

Regarding `Cc1nc2c(-c3cccc(N4CCOCC4)c3)cnn2c(N)c1-c1cccc(Cl)c1` [Example 87, 6-(3-Chloro-phenyl)-5-methyl-3-(3-morpholin-4-yl-phenyl)-pyrazolo[1,5-a]pyrimidin-7-ylamine], the IC50 on Tek, at Cdk1/cycB and on HER-1 was above 10 µM each time.

On to `COc1ccc(-c2cnn3c(N)c(-c4cccc(Cl)c4)c(C)nc23)cc1` [Example 88, 6-(3-Chloro-phenyl)-3-(4-methoxy-phenyl)-5-methyl-pyrazolo[1,5-a]pyrimidin-7-ylamine], for which the IC50 on Tek, on Cdk1/cycB and at HER-1 was above 10 µM in each case.

Regarding `Cc1nc2c(-c3cccc(N4C[C@@H](C)O[C@@H](C)C4)c3)cnn2c(N)c1-c1cccc(Cl)c1` [Example 89, 6-(3-Chloro-phenyl)-3-[3-((2R,6S)-2,6-dimethyl-morpholin-4-yl)-phenyl]-5-methyl-pyrazolo[1,5-a]pyrimidin-7-ylamine], the IC50 at Tek was 1 to 10 µM; at Cdk1/cycB, above 10 µM; on HER-1, above 10 µM.

Regarding `Cc1nc2c(-c3cccc(N4CCN(CCO)CC4)c3)cnn2c(N)c1-c1cccc(Cl)c1` [Example 90, 2-(4-{3-[7-Amino-6-(3-chloro-phenyl)-5-methyl-pyrazolo[1,5-a]pyrimidin-3-yl]-phenyl}-piperazin-1-yl)-ethanol], the IC50 was 1 to 10 µM at Tek, above 10 µM on Cdk1/cycB and above 10 µM at HER-1.

As to `CN1CCN(c2cccc(-c3cnn4c(N)c(Cc5ccccc5)cnc34)c2)CC1` [Example 91, 6-Benzyl-3-[3-(4-methyl-piperazin-1-yl)-phenyl]-pyrazolo[1,5-a]pyrimidin-7-ylamine], the IC50 on Tek, on Cdk1/cycB and at HER-1 was above 10 µM in each case.

As for `COc1ccc(-c2cnn3c(N)c(-c4cccc(Cl)c4)c(CF)nc23)cc1OC` [Example 92, 6-(3-Chloro-phenyl)-3-(3,4-dimethoxy-phenyl)-5-fluoromethyl-pyrazolo[1,5-a]pyrimidin-7-ylamine], the IC50 on Tek, at Cdk1/cycB and on HER-1 was above 10 µM throughout.

In the case of `COc1ccc(-c2cnn3c(N)c(-c4cccc(Cl)c4)c(C)nc23)cc1OC` [Example 93, 6-(3-Chloro-phenyl)-3-(3,4-dimethoxy-phenyl)-5-methyl-pyrazolo[1,5-a]pyrimidin-7-ylamine], the IC50 at Tek, on Cdk1/cycB and on HER-1 was above 10 µM throughout.

In the case of `COc1ccc(-c2cnn3c(N)c(-c4ccc(F)c(Cl)c4)c(C)nc23)cc1OC` [Example 94, 6-(3-Chloro-4-fluoro-phenyl)-3-(3,4-dimethoxy-phenyl)-5-methyl-pyrazolo[1,5-a]pyrimidin-7-ylamine], the IC50 on Tek, on Cdk1/cycB and on HER-1 was above 10 µM each time.

In the case of `COc1ccc(-c2cnn3c(N)c(-c4ccc(F)c(Cl)c4)c(C)nc23)cc1` [Example 95, 6-(3-Chloro-4-fluoro-phenyl)-3-(4-methoxy-phenyl)-5-methyl-pyrazolo[1,5-a]pyrimidin-7-ylamine], the IC50 at Tek, on Cdk1/cycB and on HER-1 was above 10 µM in each case.

`COc1ccc(-c2cnn3c(N)c(-c4ccc(F)cc4)c(C)nc23)cc1` [Example 96, 6-(4-Fluoro-phenyl)-3-(4-methoxy-phenyl)-5-methyl-pyrazolo[1,5-a]pyrimidin-7-ylamine]: the IC50 on Tek was above 10 µM; at Cdk1/cycB, above 10 µM; at HER-1, 1 to 10 µM.

Turning to `Cc1nc2c(-c3cccc(N4CCN(CCO)CC4)c3)cnn2c(N)c1-c1ccc(F)cc1` [Example 97, 2-(4-{3-[7-Amino-6-(4-fluoro-phenyl)-5-methyl-pyrazolo[1,5-a]pyrimidin-3-yl]-phenyl}-piperazin-1-yl)-ethanol], the IC50 at Tek, at Cdk1/cycB and on HER-1 was above 10 µM throughout.

On to `Cc1nc2c(-c3cccc(N4CCN(C)CC4)c3)cnn2c(N)c1-c1ccc(F)c(F)c1` [Example 98, 6-(3,4-Difluoro-phenyl)-5-methyl-3-[3-(4-methyl-piperazin-1-yl)-phenyl]-pyrazolo[1,5-a]pyrimidin-7-ylamine], for which the values for the IC50 at Tek, at Cdk1/cycB and on HER-1 were 1 to 10 µM, above 10 µM and above 10 µM, respectively.

As to `COc1ccc(-c2cnn3c(N)c(-c4ccc(F)c(F)c4)c(C)nc23)cc1OC` [Example 99, 6-(3,4-Difluoro-phenyl)-3-(3,4-dimethoxy-phenyl)-5-methyl-pyrazolo[1,5-a]pyrimidin-7-ylamine], the IC50 on Tek, at Cdk1/cycB and at HER-1 was above 10 µM each time.

`Cc1nc2c(-c3cccc(N4CCN(CCO)CC4)c3)cnn2c(N)c1-c1ccc(F)c(Cl)c1` [Example 100, 2-(4-{3-[7-Amino-6-(3-chloro-4-fluoro-phenyl)-5-methyl-pyrazolo[1,5-a]pyrimidin-3-yl]-phenyl}-piperazin-1-yl)-ethanol]: the IC50 at Tek, on Cdk1/cycB and at HER-1 was above 10 µM throughout.

As for `Cc1nc2c(-c3cccc(N4CCN(CCO)CC4)c3)cnn2c(N)c1-c1ccc(F)c(F)c1` [Example 101, 2-(4-{3-[7-Amino-6-(3,4-difluoro-phenyl)-5-methyl-pyrazolo[1,5-a]pyrimidin-3-yl]-phenyl}-piperazin-1-yl)-ethanol], the IC50 at Tek, at Cdk1/cycB and at HER-1 was above 10 µM each time.

In the case of `Cc1nc2c(-c3cccc(N4CCC(N5CCCC5)CC4)c3)cnn2c(N)c1-c1cccc(Cl)c1` [Example 102, 6-(3-Chloro-phenyl)-5-methyl-3-[3-(4-pyrrolidin-1-yl-piperidin-1-yl)-phenyl]-pyrazolo[1,5-a]pyrimidin-7-ylamine], the IC50 at Tek was 1 to 10 µM; on Cdk1/cycB, above 10 µM; at HER-1, above 10 µM.

With `Cc1nc2c(-c3cccc(N4CCC(N5CCCC5)CC4)c3)cnn2c(N)c1-c1ccc(F)cc1` [Example 103, 6-(4-Fluoro-phenyl)-5-methyl-3-[3-(4-pyrrolidin-1-yl-piperidin-1-yl)-phenyl]-pyrazolo[1,5-a]pyrimidin-7-ylamine], the IC50 on Tek, at Cdk1/cycB and on HER-1 was above 10 µM in each case.

As to `Cc1nc2c(-c3cccc(N4CC[N+](C)([O-])CC4)c3)cnn2c(N)c1-c1ccc(F)cc1` [Example 106, 6-(4-Fluoro-phenyl)-5-methyl-3-[3-(4-methyl-4-oxy-piperazin-1-yl)-phenyl]-pyrazolo[1,5-a]pyrimidin-7-ylamine], the IC50 at Tek, at Cdk1/cycB and on HER-1 was above 10 µM each time.

These data come from US20090099167A1, “Organic compounds” (Novartis Institutes for Biomedical Research, priority 2004, published 2009).
